Columns and labels:
[1] = test system: 24-month-old C57BL/6 mice; assay: Activity monitoring wheel test in aged mice (frailty study); type: in vivo, mouse; conditions: 275 ug/mL in drinking water; both experiments; average
Protocol: The animals were housed with access to voluntary running wheels that wirelessly transmit running data to a computer for analysis. Voluntary running wheel activity levels were measured daily, and body weights were measured every 2 weeks.
The study concluded on Study Day 83. Activity wheel monitoring started on Study Day 1 and ended on Study Day 83 (Phase Day 64). The data was analyzed at the end of the study. […] For the frailty portion of the study, mice were assessed using an activity monitoring wheel which was monitored passively with a computer monitoring system.
BGE-105 was administered in drinking water consumed ad libitum. The compound is mildly acidic when dissolved, resulting in a pH 4.5 solution. The deionized water was adjusted to pH 8.5 by adding 1N NaOH. […]
The activity-monitoring wheel is a running disk that monitors rotations. […] Activity was monitored passively and wirelessly with a computer monitoring system. Running wheel activity levels were monitored daily. […] Mouse activity levels were measured as the number of wheel revolutions per day for each mouse and converted into a daily count of kilometers run using the diameter of the wheel. Within each experimental group, the daily median value for activity was calculated. […] The daily differences between the distances run in each group were calculated and tested for an increasing trend using Kendall's rank correlation tau.

[2] = test system: healthy volunteers aged ≥65 years; assay: Phase 1b bed rest study, muscle protein synthesis rate (heavy water, vastus lateralis microbiopsy); type: in vivo, human
Protocol: Heavy Water Consumption and Assessments. For subjects in Part B only, heavy water, deuterated H2O (D2O), is provided to subjects to drink during the pre-treatment and treatment periods before breakfast, in the afternoon, and after fasting overnight, at timepoints described previously. Blood samples (10 mL) and urine samples are collected at timepoints described previously to assess skeletal muscle protein fractional synthetic rate (FSR).
Skeletal muscle protein synthesis rate (%/time) for individual muscle proteins are compared first as a linear contrast including all doses versus placebo and then as individual dose comparisons to placebo.
(§1) One day before (baseline, D-1) and 5 (D5) and 10 (D10) days after initiation of bed rest, key muscle atrophy endpoints were measured: thigh circumference; cross-sectional area (CSA) and A-P diameter of vastus lateralis (ultrasound); ultrasound muscle quality grade, an index that quantifies fatty degeneration in muscle (ultrasound echo density); and muscle protein synthesis rate (biopsy). Parameters measured during the 10-day bed rest period include thigh circumference, muscle size, muscle quality (e.g., fatty degeneration), and muscle protein synthetic rate.

[3] = test system: healthy volunteers aged ≥65 years; assay: Phase 1b bed rest study, ultrasound muscle quality grade (echo density); type: in vivo, human
Protocol: as §1
The echo density measurements showing the number of patients receiving an ultrasound muscle quality grading scale using a numerical grading system of grade 1 or a grade 2 classifying fatty muscle atrophy by measuring fatty infiltration of the muscle fibers of a biopsy from the patient. […] Open box represents normal muscle (grade 1), and striped box represents muscle that contains some fatty streaks (grade 2). […] (p=0.0019).

[4] = test system: healthy volunteers aged ≥65 years; assay: Phase 1b bed rest study Part B (MD), limb circumference and ultrasound muscle dimensions; type: in vivo, human
Protocol: In each of the 3 cohorts in Part B, 30 total subjects are enrolled to receive treatment in either Cohort 1A, Cohort 1B, or Cohort 1C. Cohort 1A includes 10 subjects who all receive placebo NS over a 1 hour infusion for 10 days on Days 1 through Day 10. […] Patients are at bed rest for the entire 10-day duration of treatment.
Ultrasound images were collected during the following study visits: Day −1 (baseline), Day 6 (pre-dose), and day 11 (end of treatment). Ultrasounds were performed of both the vastus lateralis and gastroenemius to measure cross-sectional area, color flow doppler, antero-posterior (AP) diameter, and echo density. Muscle circumference was also measured. Ultrasound imaging was conducted by the same operator throughout the study for all subjects. Ultrasound readings were done by the same reader throughout the study for all subjects. […] The leg measured (right vs. left) and leg location (medial vs. lateral) remained consistent for all ultrasounds.
Muscle circumference was measured in centimeters (cm) using a measuring tape and recorded on the ultrasound worksheet at the time of imaging.
The ultrasound images were collected before conducting the skeletal muscle micro-biopsy. Prior to testing, subjects were instructed to wear shorts on testing day to avoid compression of the upper leg musculature and to expose the upper portion of the thigh. Subjects were required to lay supine on an examination table with both legs fully extended for a minimum of 5 minutes to allow for fluid shifts to occur. Each subject was instructed to lay on their non-dominant side to obtain skeletal muscle ultrasound images of the vastus lateralis and gastrocnemius in the dominant leg. Subjects were positioned with their legs on top of one another and slightly bent at the knee. Ultrasound images of the vastus lateralis will be captured at 50% of the straight-line distance from the greater trochanter and the lateral epicondyle of the femur.
To ensure proper probe placement and consistent image capture location, a dotted line was drawn transversely and longitudinally along the surface of the skin from the aforementioned location. All measures of muscle morphology were obtained using a B-mode, 12-MHz linear probe US (General Electric vivid E9) to provide acoustic contact without depressing the dermal layer of the skin. Longitudinal B-mode and transverse field of view (FOV) images were acquired during each exam and analyzed. Ultrasound settings remained fixed for examination of each subject: image gain was set at 50 decibels (dB), dynamic range was set at 72, and image depth was set at 5 cm. Three panoramic transverse images (PTI) were captured in the transverse plane, perpendicular to the long axis of the muscle. These images utilized the extended-field-of-view ultrasonography in order to include entire area of the vastus lateralis in a single panoramic image.
Additionally, three single longitudinal images (SLI) were captured in the longitudinal plane, parallel to the long axis of the muscle. […] This same technique was applied to ultrasound of the gastrocnemius. Either the medial head or lateral head of the gastrocnemius was used for ultrasound evaluation, but not both. The same head was used for all gastrocnemius ultrasounds throughout the study.
as §1

[5] = 240 mg IV once daily, 10 days bed rest

## COc1cccc(OC)c1-n1c(NS(=O)(=O)[C@@H](C)[C@H](C)c2ncc(C)cn2)nnc1-c1cncc(C)c1 [BGE-105, (2S,3R)—N-(4-(2,6-dimethoxyphenyl)-5-(5-methyl-3-pyridinyl)-4H-1,2,4-triazol-3-yl)-3-(5-methyl-2-pyrimidinyl)-2-butanesulfonamide]
[1]
  distance run more than vehicle-treated mice at end of experimental period: at least 1 km/day
[2]; BGE-105 treated patients with elevated rate, 10 days bed rest
  mean normalized fraction synthetic rate, range: 0.18-2.2
[2]; after 10 days of bed rest
  number of patients (out of 11) with elevated rate of muscle protein synthesis: 8
[2]; vastus lateralis (placebo 58%)
  decrease in the synthetic rate of muscle myofibril proteins (FSR/day) from baseline: 36%
[3]; 240 mg daily (cohort MD 1B), 10-day bed rest
  Muscle grade (progression), number of subjects out of 11: 1
[3]; after 10 days of bed rest (placebo 8 of 10)
  number of patients (out of 11) moving to / worsening to ultrasound muscle quality grade 2: 1
[4]; [5]
  reduction in loss of vastus lateralis cross-sectional area vs placebo: > 50%
  reduction in loss of vastus lateralis muscle thickness vs placebo: 75%
[4]; 10 days of bed rest (placebo 10.982%)
  decrease in gastrocnemius diameter, mean percent change from baseline: 2.942
[4]; 10 days of bed rest (placebo 15.72%)
  decrease in gastrocnemius cross-sectional area, mean percent change from baseline: 7.758%
[4]; Cohort 1B vs Cohort 1A
  improvement in muscle dimension vs placebo: ~75%
[4]; female subjects (placebo 5.486%)
  decrease in calf circumference: 1.166%
[4]; female subjects (placebo 6.06%)
  decrease in thigh circumference: 1.674%
[4]; female subjects (placebo 15.32%)
  decrease in gastrocnemius cross sectional area: 5.558%
[4]; female subjects (placebo 23.67%)
  decrease in vastus lateralis cross sectional area: 9.676%
[4]; healthy volunteer bed rest study
  reduction in muscle loss from disuse atrophy: up to 75%
[4]; older patients, BGE-105 treated group (placebo 6.438% reduction)
  increase in thigh circumference after 10-day bed rest: 0.8%
[4]; over 10 days of bed rest
  number of subjects (out of 11) with fully preserved or increased thigh circumference: 7
  percent of subjects with fully preserved or increased thigh circumference: 64%
[4]; treatment group (Cohort 1B) (placebo 21%)
  decrease in muscle size measured by ultrasound: 5.664%

— patent US20240122926A1, “APELIN RECEPTOR MODULATORS FOR TREATING MUSCLE CONDITIONS” (priority 2022, published 2024)
